According to US8822523B2, “Carboxamide microbiocides” (Syngenta Participations AG, priority 2011, dated 2014):

Tests used:
Puccinia recondita [1] = test: Puccinia recondita / wheat / leaf disc preventative (brown rust); assay type: in vivo; conditions: foliar, 200 ppm active ingredient, wheat leaf segments, preventive, assessed 8 dpi, read-out: fungal growth inhibition
Protocol: Puccinia recondita/Wheat/Leaf Disc Preventative (Brown Rust)
Wheat leaf segments were placed on agar in multiwell plates (24-well format) and sprayed with test solutions (200 ppm active ingredient). After drying, the leaf disks were inoculated with a spore suspension of the fungus. After appropriate incubation the activity of a compound was assessed 8 dpi (days after inoculation) as preventive fungicidal activity. The activity of a compound was expressed as fungal growth inhibition (0=no growth inhibition, ratings of 80% to 99% mean good to very good inhibition, 100%=complete inhibition).

Puccinia recondita [2] = test: Puccinia recondita / wheat / leaf disc curative (brown rust); assay type: in vivo; conditions: foliar, 24 h, 200 ppm active ingredient applied one day after inoculation, wheat leaf segments, assessed 8 dpi, read-out: fungal growth inhibition
Protocol: Puccinia recondita/Wheat/Leaf Disc Curative (Brown Rust)
Wheat leaf segments were placed on agar in multiwell plates (24-well format). The leaf disks were then inoculated with a spore suspension of the fungus One day after inoculation the test solution was applied (200 ppm active ingredient). After appropriate incubation the activity of a compound was assessed 8 dpi (days after inoculation) as curative fungicidal activity. The activity of a compound was expressed as fungal growth inhibition (0=no growth inhibition, ratings of 80% to 99% mean good to very good inhibition, 100%=complete inhibition).

[3] = system: Mycosphaerella arachidis (Cercospora arachidicola); test: Mycosphaerella arachidis (Cercospora arachidicola) / liquid culture (early leaf spot); assay type: cell-based; conditions: 200 ppm active ingredient, PDB potato dextrose broth, 24° C., photometrically after 6-7 days, read-out: fungal growth inhibition
Protocol: Mycosphaerella arachidis (Cercospora arachidicola)/Liquid Culture (Early Leaf Spot)
(§1) Conidia of the fungus from cryogenic storage were directly mixed into nutrient broth (PDB potato dextrose broth). After placing a (DMSO) solution of the test compounds (200 ppm active ingredient) into a microtiter plate (96-well format) the nutrient broth containing the fungal spores was added. The test plates were incubated at 24° C. and the inhibition of growth was measured photometrically after 6-7 days. The activity of a compound was expressed as fungal growth inhibition (0=no growth inhibition, ratings of 80% to 99% mean good to very good inhibition, 100%=complete inhibition).

[4] = system: Mycosphaerella graminicola (Septoria tritici); test: Mycosphaerella graminicola (Septoria tritici) / liquid culture (Septoria blotch); assay type: cell-based; conditions: Zymoseptoria tritici, 96 h; 200 ppm active ingredient, PDB potato dextrose broth, 24° C., photometrically after 4 days; read-out: fungal growth inhibition
Protocol: Mycosphaerella graminicola (Septoria tritici)/Liquid Culture (Septoria blotch)
as §1, with “4” for “6-7”

Measured: inhibition at 200 ppm

Cn1cc(C(=O)NOCC2CCCCc3cc(C#CC(C)(C)C)sc32)c(C(F)F)n1 (stereo not shown) [Compound 2.47, 3-Difluoromethyl-1-methyl-1H-pyrazole-4-carboxylic acid [2-(3,3-dimethylbut-1-ynyl)-5,6,7,8-tetrahydro-4H-cyclohepta[b]thiophen-8-yl]methoxy amide]
≥ 80%: all assays above
